Ring closure, conversion by HPLC and ring closure, isolated yield data for 14 compounds are collected here from article PMC4618480.

Series [1] in a line: on-resin RCM stapling (Rink amide MBHA), 16 mol% Ru catalyst 1 (Grubbs I), then TFA/TIS/H2O cleavage. Conditions: the molecule shown is the open-chain precursor, DCE, 40.0 °C.
Series [2] can be described thus: RCM, 10 mol% Ru catalyst 5 (o-tolyl NHC Hoveyda type), quenched with ethyl vinyl ether. The conditions noted are these: DCE, 2.0 mM, 40.0 °C, 4.0 h.
Series [3] is described as follows: RCM, 10 mol% Ru catalyst 2 (Grubbs II), quenched with ethyl vinyl ether. The conditions noted are these: DCE, 2.0 mM, 40.0 °C, 4.0 h.
A short description of series [4]: RCM, 10 mol% Z-selective cyclometalated Ru catalyst 7 (Dipp), quenched with ethyl vinyl ether. Conditions: DCE, 2.0 mM, 40.0 °C, 4.0 h.
The nature of series [5]: RCM, 10 mol% Z-selective cyclometalated Ru catalyst 6 (Mes), quenched with ethyl vinyl ether. Conditions: DCE, 2.0 mM, 40.0 °C, 4.0 h.
A short description of series [6]: RCM, 10 mol% Ru catalyst 3 (Hoveyda-Grubbs II), quenched with ethyl vinyl ether. Conditions: DCE, 2.0 mM, 40.0 °C, 4.0 h.
A short description of series [7]: RCM, 10 mol% Ru catalyst 4 (nitro-Hoveyda/Grela), quenched with ethyl vinyl ether. The conditions noted are these: DCE, 2.0 mM, 40.0 °C, 4.0 h.
Series [8] in a line: RCM, 10 mol% Ru catalyst 1 (Grubbs I), quenched with ethyl vinyl ether. The conditions noted are these: DCE, 2.0 mM, 40.0 °C, 4.0 h.
A short description of series [9]: on-resin RCM stapling (Rink amide MBHA), 16 mol% Ru catalyst 4 (nitro-Hoveyda/Grela), then TFA/TIS/H2O cleavage. The conditions noted are these: the molecule shown is the open-chain precursor, DCE, 40.0 °C.
The nature of series [10]: on-resin RCM stapling (Rink amide MBHA), 16 mol% Ru catalyst 5 (o-tolyl NHC Hoveyda type), then TFA/TIS/H2O cleavage. Conditions: the molecule shown is the open-chain precursor, 33-membered ring, DCE, 40.0 °C.
A short description of series [11]: on-resin RCM stapling (Rink amide MBHA), 16 mol% Z-selective Ru catalyst 7 (Dipp), then TFA/TIS/H2O cleavage. Conditions: the molecule shown is the open-chain precursor, DCE, 40.0 °C.
Series [12] in a line: on-resin RCM stapling (Rink amide MBHA), 16 mol% Ru catalyst 2 (Grubbs II), then TFA/TIS/H2O cleavage. The conditions noted are these: the molecule shown is the open-chain precursor, DCE, 40.0 °C.
Series [13] in a line: on-resin RCM stapling (Rink amide MBHA), 16 mol% Z-selective Ru catalyst 6 (Mes), then TFA/TIS/H2O cleavage. Conditions: the molecule shown is the open-chain precursor, DCE, 40.0 °C.
A short description of series [14]: on-resin RCM stapling (Rink amide MBHA), 16 mol% Ru catalyst 3 (Hoveyda-Grubbs II), then TFA/TIS/H2O cleavage. Conditions: the molecule shown is the open-chain precursor, 21-membered ring, DCE, 40.0 °C.
Setting [15] is: from C=CC[C@H](NC(=O)CNC(=O)[C@@H]1CCCN1C(=O)[C@H](CC=C)NC(=O)OC(C)(C)C)C(=O)OC, 14-membered ring.
Where [16] appears, read: from C=CCSC[C@H](NC(=O)OC(C)(C)C)C(=O)N[C@@H](CC(C)C)C(=O)N[C@@H](CC(C)C)C(=O)N[C@@H](CSCC=C)C(=O)OC, 18-membered ring.
The mark [17] stands for this setting: from C=CCCOc1ccc(C[C@H](NC(=O)OC(C)(C)C)C(=O)N[C@@H](CC(C)C)C(=O)N[C@@H](CCC=C)C(=O)OC)cc1, 19-membered ring.
The mark [18] stands for this setting: from C=CCCOc1ccc(C[C@H](NC(=O)OC(C)(C)C)C(=O)N[C@@H](CC(C)C)C(=O)N[C@@H](CC=C)C(=O)OC)cc1, 18-membered ring.
The mark [19] stands for this setting: from C=CCOC[C@H](NC(=O)OC(C)(C)C)C(=O)N[C@@H](CC(C)C)C(=O)N[C@@H](CC(C)C)C(=O)N[C@@H](COCC=C)C(=O)OC, 18-membered ring.
[20] abbreviates: from C=CC[C@H](NC(=O)OC(C)(C)C)C(=O)N[C@@H](Cc1cn(S(=O)(=O)c2ccc(C)cc2)cn1)C(=O)NCC(=O)N[C@@H](CC=C)C(=O)OC, 14-membered ring.
The mark [21] stands for this setting: from C=CCOc1ccc(C[C@H](NC(=O)OC(C)(C)C)C(=O)N[C@@H](CC(C)C)C(=O)N[C@@H](CC=C)C(=O)OC)cc1, 17-membered ring.
Where [22] appears, read: from C=CC[C@H](NC(=O)OC(C)(C)C)C(=O)N[C@@H](CC(C)C)C(=O)N[C@@H](CC(C)C)C(=O)N[C@@H](CC=C)C(=O)OCc1ccccc1, 14-membered ring.

Take `C=CCCCCCC[C@@](C)(NC(=O)[C@H](Cc1ccccc1)NC(=O)[C@@H](NC(=O)[C@H](CCC(N)=O)NC(=O)[C@H](CCC(N)=O)NC(=O)[C@H](CO)NC(=O)[C@H](CCC(N)=O)NC(=O)OCC1c2ccccc2-c2ccccc21)[C@@H](C)O)C(=O)N[C@@H](CC(N)=O)C(=O)N[C@@H](CC(C)C)C(=O)N[C@@H](Cc1c[nH]c2ccccc12)C(=O)N[C@@H](CCCNC(=N)N)C(=O)N[C@@H](CC(C)C)C(=O)N[C@@H](CC(C)C)C(=O)N[C@@](C)(CCCC=C)C(=O)N[C@@H](CCC(N)=O)C(=O)N[C@@H](CC(N)=O)C(N)=O`: the ring closure, conversion by HPLC in series [1] (33-membered ring) was determined as 92%.

Take `COC(=O)[C@@H]1CC=CC[C@H](NC(=O)OC(C)(C)C)C(=O)N2CCC[C@H]2C(=O)NCC(=O)N1` [Boc-allylGly-Pro-Gly-allylGly-OMe]: the ring closure, isolated yield in series [2] (setting [15]) stood at 20%; in series [3] (setting [15]), 48%; in series [4] (setting [15]), 18%; in series [5] (setting [15]) it was 17%; in series [6] (setting [15]), 41%; in [7] (setting [15]) it was 36%. Also, the ring closure, isolated yield in [8] (setting [15]) stood at 37%.

For “Fmoc-Gln-Ser-Gln-Gln-Thr-Phe-R8-Asn-Leu-Trp-Arg-Leu-Leu-S5-Gln-Asn-NH-resin”, the ring closure, conversion by HPLC in series [9] (33-membered ring) was found to be 85%; in series [10], 80%; in [11] (33-membered ring), 70%; in [12] (33-membered ring), 90%; in [13] (33-membered ring), 75%.

Consider `COC(=O)[C@@H]1CSCC=CCSC[C@H](NC(=O)OC(C)(C)C)C(=O)N[C@@H](CC(C)C)C(=O)N[C@@H](CC(C)C)C(=O)N1` [Boc-Cys(S-allyl)-Leu-Leu-Cys(S-allyl)-OMe], for which the ring closure, isolated yield was 42% in series [2] (setting [16]); 81% in series [3] (setting [16]); 33% in series [4] (setting [16]); 40% in series [5] (setting [16]); 79% in series [6] (setting [16]); 83% in series [7] (setting [16]). For the same compound, the ring closure, isolated yield in [8] (setting [16]) amounted to 77%.

For the compound `C=CCCCCCC[C@@](C)(NC(=O)[C@H](CC(N)=O)NC(=O)[C@@H](NC(=O)OCC1c2ccccc2-c2ccccc21)C(C)C)C(=O)N[C@@H](CCCCN)C(=O)N[C@@H](CCCCN)C(=O)N[C@H](C(=O)N[C@@H](CC(C)C)C(=O)NCC(=O)N[C@@H](CCCCN)C(=O)N[C@@](C)(CCCC=C)C(=O)N[C@H](C(=O)N[C@@H](CCCCN)C(=O)N[C@H](C(=O)N[C@H](C(=O)N[C@@H](CCCCN)C(N)=O)C(C)C)C(C)C)[C@@H](C)CC)[C@@H](C)CC`, the ring closure, conversion by HPLC in series [1] (33-membered ring) stood at 88%.

In the case of “Fmoc-Ala-Glu-Leu-Glu-Arg-S5-His-Thr-Phe-S5-Leu-His-Gln-Arg-NH-resin”, the ring closure, conversion by HPLC in series [9] (21-membered ring) is 92%; in [14], 88%; in series [11] (21-membered ring) it was 70%; in series [12] (21-membered ring) it was 85%; in series [13] (21-membered ring), 80%.

Take `C=CCCC[C@](C)(NC(=O)[C@H](Cc1ccccc1)NC(=O)[C@@H](NC(=O)[C@H](Cc1c[nH]cn1)NC(=O)[C@](C)(CCCC=C)NC(=O)[C@H](CCCNC(=N)N)NC(=O)[C@H](CCC(=O)O)NC(=O)[C@H](CC(C)C)NC(=O)[C@H](CCC(=O)O)NC(=O)[C@H](C)NC(=O)OCC1c2ccccc2-c2ccccc21)[C@@H](C)O)C(=O)N[C@@H](CC(C)C)C(=O)N[C@@H](Cc1c[nH]cn1)C(=O)N[C@@H](CCC(N)=O)C(=O)N[C@@H](CCCNC(=N)N)C(N)=O`: in series [1] (21-membered ring), the ring closure, conversion by HPLC was 93%.

The compound `C=CCCC[C@](C)(NC(=O)[C@H](CC(C)C)NC(=O)[C@H](CC(C)C)NC(=O)[C@H](CC(=O)O)NC(=O)[C@](C)(CCCC=C)NC(=O)[C@H](Cc1ccccc1)NC(=O)[C@@H](NC(=O)[C@@H](NC(=O)OCC1c2ccccc2-c2ccccc21)[C@@H](C)CC)[C@@H](C)O)C(=O)N[C@@H](Cc1ccc(O)cc1)C(=O)N[C@@H](Cc1ccc(O)cc1)C(=O)NCC(=O)N1CCC[C@H]1C(N)=O` [Fmoc-Ile-Thr-Phe-S5-Asp-Leu-Leu-S5-Tyr-Tyr-Gly-Pro-NH-resin] showed a ring closure, conversion by HPLC in series [1] (21-membered ring) of 90%.

For `COC(=O)[C@@H]1CCC=CCCOc2ccc(cc2)C[C@H](NC(=O)OC(C)(C)C)C(=O)N[C@@H](CC(C)C)C(=O)N1` [Boc-Tyr(O-homoallyl)-Leu-homoallylGly-OMe], the ring closure, isolated yield in [2] (setting [17]) worked out at 44%; in [3] (setting [17]) it was 77%; in series [4] (setting [17]) it was 24%; in series [5] (setting [17]), 26%; in series [6] (setting [17]), 70%; in series [7] (setting [17]), 66%. In [8] (setting [17]), this compound gave a ring closure, isolated yield of 68%.

As for `COC(=O)[C@@H]1CC=CCCOc2ccc(cc2)C[C@H](NC(=O)OC(C)(C)C)C(=O)N[C@@H](CC(C)C)C(=O)N1` [Boc-Tyr(O-homoallyl)-Leu-allylGly-OMe], the ring closure, isolated yield amounted to 24% in series [2] (setting [18]); 61% in series [3] (setting [18]); 17% in series [4] (setting [18]); 21% in [5] (setting [18]); 55% in series [6] (setting [18]); 60% in [7] (setting [18]). In addition, in [8] (setting [18]), the ring closure, isolated yield came out at 54%.

As for `COC(=O)[C@@H]1COCC=CCOC[C@H](NC(=O)OC(C)(C)C)C(=O)N[C@@H](CC(C)C)C(=O)N[C@@H](CC(C)C)C(=O)N1` [Boc-Ser(O-allyl)-Leu-Leu-Ser(O-allyl)-OMe], the ring closure, isolated yield in series [2] (setting [19]) turned out to be 44%; in series [3] (setting [19]) it was 76%; in [4] (setting [19]), 34%; in series [5] (setting [19]), 36%; in series [7] (setting [19]), 74%; in series [8] (setting [19]) it was 73%.

For `COC(=O)[C@@H]1CC=CC[C@H](NC(=O)OC(C)(C)C)C(=O)N[C@@H](Cc2cn(S(=O)(=O)c3ccc(C)cc3)cn2)C(=O)NCC(=O)N1` [Boc-allylGly-His(Tos)-Gly-allylGly-OMe], the ring closure, isolated yield was < 5% in series [2] (setting [20]); 18% in series [3] (setting [20]); < 10% in [6] (setting [20]); 12% in series [7] (setting [20]); 14% in series [8] (setting [20]).

Regarding `COC(=O)[C@@H]1CC=CCOc2ccc(cc2)C[C@H](NC(=O)OC(C)(C)C)C(=O)N[C@@H](CC(C)C)C(=O)N1` [Boc-Tyr(O-allyl)-Leu-allylGly-OMe], the ring closure, isolated yield in [2] (setting [21]) came to 45%; in series [3] (setting [21]), 71%; in [4] (setting [21]), 41%; in [5] (setting [21]), 47%; in series [6] (setting [21]) it was 63%; in series [7] (setting [21]), 66%. The compound also registered a ring closure, isolated yield in series [8] (setting [21]) of 58%.

In the case of `CC(C)C[C@@H]1NC(=O)[C@@H](NC(=O)OC(C)(C)C)CC=CC[C@@H](C(=O)OCc2ccccc2)NC(=O)[C@H](CC(C)C)NC1=O` [Boc-allylGly-Leu-Leu-allylGly-OBn], the ring closure, isolated yield in series [2] (setting [22]) worked out at 39%; in [3] (setting [22]), 74%; in series [4] (setting [22]) it was 30%; in series [5] (setting [22]), 32%; in [6] (setting [22]), 61%; in series [7] (setting [22]) it was 64%. This compound also gave a ring closure, isolated yield in series [8] (setting [22]) of 70%.
